{"source": "patent US4172138A", "about": "“Method and composition of matter for the treatment of dry cows for mastitis” (priority 1977, dated 1979)", "key": {"[1]": {"assay": "residual penicillin G in the udder of a treated dry cow over 30 days", "format": "in vivo", "conditions": "for Residual Benzathine Penicillin G In The Udder: 500,000 units of the composition of Example 1; for Residual Procaine Penicillin G In The Udder: dosage of 500,000 u"}, "[2]": {"conditions": "cited from earlier work"}, "[3]": {"conditions": "high concentration product, e.g. 1,000,000 units procaine penicillin G and 1,000 milligrams dihydrostreptomycin; in some cases; cited from earlier work"}}}
{"smiles": "CC1(C)S[C@@H]2[C@H](NC(=O)Cc3ccccc3)C(=O)N2[C@H]1C(=O)O", "note": "[Benzathine Penicillin G, N, N dibenzyl ethylene diamine di benzyl penicillinate]", "values": [{"measurement": "Residual Benzathine Penicillin G In The Udder", "setting": "[1]; day 8 past treatment", "value": 5.37, "unit": "u/ml."}, {"measurement": "Residual Benzathine Penicillin G In The Udder", "setting": "[1]; day 10 past treatment", "value": 3.67, "unit": "u/ml."}, {"measurement": "Residual Benzathine Penicillin G In The Udder", "setting": "[1]; day 12 past treatment", "value": 4, "unit": "u/ml."}, {"measurement": "Residual Benzathine Penicillin G In The Udder", "setting": "[1]; day 16 past treatment", "value": 3.57, "unit": "u/ml."}, {"measurement": "Residual Benzathine Penicillin G In The Udder", "setting": "[1]; day 23 past treatment", "value": 2.2, "unit": "u/ml."}, {"measurement": "Residual Benzathine Penicillin G In The Udder", "setting": "[1]; day 30 past treatment", "value": 0.11, "unit": "u/ml."}, {"measurement": "amount remaining for effectively treating mastitis, compared with procaine penicillin", "setting": "[1]; over the extended 30 day treatment", "value": "substantially greater"}, {"measurement": "solubility in water", "setting": "[2]; water", "value": 500, "unit": "µg/mL"}]}
{"smiles": "CC1(C)S[C@@H]2[C@H](NC(=O)Cc3ccccc3)C(=O)N2[C@H]1C(=O)O", "note": "[Procaine Penicillin G]", "values": [{"measurement": "dissipation of procaine penicillin", "setting": "[1]; after the 8th day", "value": "rapidly dissipated"}, {"measurement": "initial amount of procaine penicillin remaining, compared with benzathine penicillin G", "setting": "[1]; at the 8th day", "value": "higher"}, {"measurement": "amount of procaine penicillin remaining relative to remaining benzathine penicillin G", "setting": "[1]; by the tenth day", "value": "less than half"}, {"measurement": "Residual Procaine Penicillin G In The Udder", "setting": "[1]; day 8 past treatment", "value": 7.68, "unit": "u/ml."}, {"measurement": "Residual Procaine Penicillin G In The Udder", "setting": "[1]; day 10 past treatment", "value": 1.56, "unit": "u/ml."}, {"measurement": "Residual Procaine Penicillin G In The Udder", "setting": "[1]; day 12 past treatment", "value": ".21 u/ml."}, {"measurement": "Residual Procaine Penicillin G In The Udder", "setting": "[1]; day 16 past treatment, not detectable", "value": "less than 0.01 u/ml."}, {"measurement": "Residual Procaine Penicillin G In The Udder", "setting": "[1]; day 23 past treatment, not detectable", "value": "less than 0.01 u/ml."}, {"measurement": "Residual Procaine Penicillin G In The Udder", "setting": "[1]; day 30 past treatment, not detectable", "value": "less than 0.01 u/ml."}, {"measurement": "solubility (in words)", "setting": "[2]; compared with limited solubility penicillin", "value": "greater solubility"}, {"measurement": "desired residual effects remain in the udder of a treated cow", "setting": "[3]", "value": "only a few days"}]}
